# Like-named read-outs stand apart in the source and are kept apart here.
# What was measured:
# [1] = tested on: P. aeruginosa ATCC 27853; experiment: MIC determination; type: cell-based; details: Pseudomonas aeruginosa, ATCC27853; Table 3; read-out: MIC P. aeruginosa ATCC 27853
# [2] = tested on: K. pneumoniae ATCC BAA 1705; experiment: MIC determination; type: cell-based; details: Klebsiella pneumoniae, BAA1705; Table 3
# [3] = tested on: S. epidermidis ATCC 12228; experiment: MIC determination; type: cell-based; details: Staphylococcus epidermidis, ATCC12228; Table 4; read-out: MIC S. epidermidis ATCC 12228
# [4] = tested on: E. coli ATCC BAA 2469; experiment: MIC determination; type: cell-based; details: Escherichia coli, BAA2469; Table 3
# [5] = tested on: M. smegmatis; experiment: MIC determination; type: cell-based, Mycobacterium smegmatis; details: Mycolicibacterium smegmatis; Table 4
# [6] = tested on: K. pneumoniae ATCC 27736; experiment: MIC determination; type: cell-based; details: Klebsiella pneumoniae, ATCC27736; Table 3; read-out: MIC K. pneumoniae ATCC 27736
# [7] = tested on: B. anthracis Sterne F32; experiment: microbe, parasite or virus in culture; type: cell-based; details: Bacillus anthracis, STERNEF32, read-out: MIC B. anthracis Sterne F32
# [8] = tested on: Y. pestis CO92; experiment: microbe, parasite or virus in culture; type: cell-based; details: Yersinia pestis, CO92, read-out: MIC Y. pestis CO92
# [9] = tested on: S. aureus ATCC 25923; experiment: MIC determination; type: cell-based; details: Staphylococcus aureus, ATCC25923; Table 4; read-out: MIC S. Aureus ATCC 25923
# [10] = tested on: Ab ATCC BAA1605 (strain J, multidrug-resistant); experiment: MIC determination; type: cell-based; details: Acinetobacter baumannii
# Method in brief: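 Broth double-dilution MIC in Mueller-Hinton broth, 96-well plates, at least in duplicate. Inoculum: colonies grown overnight at 37 °C on MH plates, suspended to OD600 ~0.5 and diluted 1:1000 into serially doubly diluted compound.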
# [11] = tested on: Ab ATCC 19606 (strain I); experiment: MIC determination (double dilution, Mueller-Hinton broth); type: cell-based, Acinetobacter baumannii; details: Acinetobacter baumannii, ATCC19606; Table 1; control strain; read-out: MIC Ab ATCC 19606
# [12] = tested on: S. enterica ATCC 14028; experiment: MIC determination; type: cell-based; details: Salmonella enterica, ATCC14028; Table 4; read-out: MIC S. enterica ATCC 14028
# [13] = tested on: E. cloacae ATCC 13047; experiment: MIC determination; type: cell-based; details: Enterobacter cloacae, ATCC13047; Table 4; read-out: MIC E. cloacae ATCC 13047
# [14] = tested on: all 41 multidrug-resistant Ab strains (#273-313) from the CDC and FDA AR Bank; experiment: MIC determination, panel statements; type: cell-based; details: Acinetobacter baumannii; Table 2 note; almost all of the 41 strains; read-out: MIC values against almost all strains
# Procedure: All bacterial strains listed above were stored at −80° C. All strains were streaked on Mueller-Hinton (MH) plates and allowed to grow at 37° C. overnight. Enough colonies were scraped from the plate and suspended in MH broth with vortexing to reach an attenuance at 600 nm (OD600) of ˜0.5. The resulting culture was diluted 1:1000 and added to the prepared serially doubly diluted compound solutions in 96-well plates. For M. smegmatis, a 1:100 dilution of the bacteria was done in MH. All MIC values were determined using 96-well plates with low evaporation seals at least in duplicate. For each row, one well was reserved for sterile control (which consisted of 200 μL of MH medium) and another well was reserved for growth control (which consisted of 100 μL of MH medium seeded with 100 μL of bacterial culture).
# Then all 46 compounds were tested against a broad panel of all 41 Ab strains from the CDC and FDA Antibiotic Resistance (AR) Isolate Bank (Table 2; data shown for 2 representative compounds), which were all highly multidrug-resistant strains, including those resistant to colistin. […] The activity of the monohydrazides was not dependent on the extent (number of resistance mutations) or severity (antibiotic MIC) of resistance. All conclusions made from Table 1 remained valid for all compounds against these 41 additional Ab strains. […]
structure (smiles),measurement,setting,value
"NC[C@H]1O[C@H](O[C@H]2[C@H](O)[C@@H](O[C@H]3O[C@H](CO)[C@@H](O)[C@H](N)[C@H]3O)[C@H](N)C[C@@H]2N)[C@H](O)[C@@H](O)[C@@H]1O [KAN, kanamycin, reference compound]",MIC,[1],> 128 µg/mL
same,MIC,[2],> 128 µg/mL
same,MIC,[3],0.63 µg/mL
same,MIC,[4],> 128 µg/mL
same,MIC,[5],≤ 0.03 µg/mL
same,MIC,[6],4 µg/mL
same,MIC,[7],> 160 µg/mL
same,MIC,[8],2.5 µg/mL
same,MIC,[9],0.63 µg/mL
same,MIC,"[10]; Table 1, multidrug-resistant strain, read-out: MIC Ab ATCC BAA 1605",10 µg/mL
same,MIC,"[10]; Table 3, positive control strain, read-out: MIC A. Baumannii ATCC BAA 1605",32 µg/mL
same,MIC,[11],5 µg/mL
same,MIC,[12],2.5 µg/mL
same,MIC,[13],1.25 µg/mL
same,MIC,[14],> 10 µg/mL

# From patent US20260041683A1, “Compounds with Anti-Acinetobacter Baumannii Activity” (University of Kentucky Research Foundation, priority 2022, published 2026)
